In ChEMBL document CHEMBL4507326, “Data for DCP probe TP-030-2” (2021):

What was measured:
hERG (KCNH2) = hERG (KCNH2) (Homo sapiens, UniProt Q12809); test: Inhibition of Potassium Channel hERG at 10 µM in the Eurofins-Panlabs radioligand binding assay (Eurofins_assay_265900); parameters: ligand concentration 1.5 nM, non-specific ligand with concentration Astemizole, incubation time 60 min, incubation temperature 25 °C; conditions: HEK-293 cells expressing human recombinant hERG, probe [3H] Astemizole, compound concentration 10 uM
[1] = target: Sodium-dependent serotonin transporter (Homo sapiens) (UniProt P31645); conditions: Compound concentration 10.0 uM
Sodium-dependent serotonin transporter (Homo sapiens), sequence (P31645 whole entry, looked up): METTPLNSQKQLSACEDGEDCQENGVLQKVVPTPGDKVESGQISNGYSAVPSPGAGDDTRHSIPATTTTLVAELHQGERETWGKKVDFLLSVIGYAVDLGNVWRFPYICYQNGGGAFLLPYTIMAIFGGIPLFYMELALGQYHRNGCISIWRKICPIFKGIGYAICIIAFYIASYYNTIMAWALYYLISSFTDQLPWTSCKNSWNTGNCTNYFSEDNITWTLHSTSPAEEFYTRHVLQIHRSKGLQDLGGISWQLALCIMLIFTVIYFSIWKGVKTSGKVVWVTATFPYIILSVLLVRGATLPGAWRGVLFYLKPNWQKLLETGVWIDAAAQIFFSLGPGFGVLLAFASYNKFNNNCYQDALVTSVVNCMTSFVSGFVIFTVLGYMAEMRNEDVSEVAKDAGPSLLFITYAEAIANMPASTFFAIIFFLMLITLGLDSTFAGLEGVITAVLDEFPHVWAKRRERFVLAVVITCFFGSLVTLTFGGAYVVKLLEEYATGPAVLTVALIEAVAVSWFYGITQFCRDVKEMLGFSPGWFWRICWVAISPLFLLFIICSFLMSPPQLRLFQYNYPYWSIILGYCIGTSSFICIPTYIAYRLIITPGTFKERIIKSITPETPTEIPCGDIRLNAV

[2] = target: Tyrosine-protein kinase Blk (Homo sapiens, UniProt P51451); test: BLK(BLK1CGF1) Takeda global kinase panel
[3] = target: Serine/threonine-protein kinase tousled-like 1 (Homo sapiens, UniProt Q9UKI8); test: TLK1(TLK1LGP1) Takeda global kinase panel
[4] = target: Cannabinoid receptor 1 (Homo sapiens) (UniProt P21554); test: Inhibition of Cannabinoid CB1 at compound concentration of 10.0 uM in the Eurofins-Panlabs radioligand binding assay (Eurofins_assay_217050); parameters: ligand concentration 2 nM; conditions: Compound concentration 10.0 uM
[5] = target: Casein kinase I isoform gamma-2 (Homo sapiens, UniProt P78368); test: CK1gamma2(C1G2LGI1) Takeda global kinase panel
[6] = target: cAMP-dependent protein kinase catalytic subunit beta (Homo sapiens, UniProt P22694); test: PKAbeta(PRCBLGF1) Takeda global kinase panel
[7] = target: 5-hydroxytryptamine receptor 1B (Homo sapiens) (UniProt P28222); conditions: Compound concentration 10.0 uM
[8] = target: Muscarinic acetylcholine receptor M5 (Homo sapiens) (UniProt P08912); conditions: Compound concentration 10.0 uM
[9] = target: Mitogen-activated protein kinase 13 (Homo sapiens, UniProt O15264); test: p38delta(MP13LGP1) Takeda global kinase panel
Mitogen-activated protein kinase 13, sequence (O15264 whole entry): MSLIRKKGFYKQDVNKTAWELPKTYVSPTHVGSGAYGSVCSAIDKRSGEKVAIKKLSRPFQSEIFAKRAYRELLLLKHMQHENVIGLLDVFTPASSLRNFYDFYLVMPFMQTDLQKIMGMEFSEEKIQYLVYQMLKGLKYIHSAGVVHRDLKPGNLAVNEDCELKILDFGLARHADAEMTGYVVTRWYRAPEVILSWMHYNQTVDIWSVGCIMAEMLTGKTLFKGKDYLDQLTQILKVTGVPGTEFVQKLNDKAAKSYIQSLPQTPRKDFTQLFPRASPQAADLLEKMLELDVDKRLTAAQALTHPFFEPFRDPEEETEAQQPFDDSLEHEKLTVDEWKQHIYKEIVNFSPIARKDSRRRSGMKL

[10] = target: Serine/threonine-protein kinase 26 (Homo sapiens, UniProt Q9P289); test: MST4(MST4LGC1) Takeda global kinase panel
Serine/threonine-protein kinase 26, sequence (Q9P289 whole entry): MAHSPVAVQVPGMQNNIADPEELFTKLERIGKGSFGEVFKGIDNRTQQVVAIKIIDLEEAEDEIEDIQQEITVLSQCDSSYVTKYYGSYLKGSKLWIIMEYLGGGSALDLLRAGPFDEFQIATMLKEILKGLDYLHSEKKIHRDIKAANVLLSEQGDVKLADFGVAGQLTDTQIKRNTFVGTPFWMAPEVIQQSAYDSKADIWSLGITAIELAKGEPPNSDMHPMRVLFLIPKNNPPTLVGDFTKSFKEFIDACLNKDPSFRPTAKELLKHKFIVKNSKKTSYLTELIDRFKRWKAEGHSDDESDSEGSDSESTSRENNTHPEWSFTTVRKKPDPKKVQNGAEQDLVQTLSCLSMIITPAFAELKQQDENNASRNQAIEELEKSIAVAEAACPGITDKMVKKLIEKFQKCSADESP

[11] = target: Glutamate receptor ionotropic, kainate (Rattus norvegicus) (UniProt P22756+Q01812+P42260+P42264+Q63273); conditions: Compound concentration 10.0 uM
[12] = target: Sodium-dependent serotonin transporter (Homo sapiens) (UniProt P31645); conditions: Compound concentration 10.0 uM; remark: listed apart in the source
[13] = target: Alpha-1A adrenergic receptor (Homo sapiens) (UniProt P35348); test: Inhibition of Adrenergic alpha1A at compound concentration of 10.0 uM in the Eurofins-Panlabs radioligand binding assay (Eurofins_assay_203110); parameters: ligand concentration 0.25 nM; conditions: Rattus norvegicus; Compound concentration 10.0 uM
[14] = target: Eukaryotic translation initiation factor 2-alpha kinase 3 (Homo sapiens, UniProt Q9NZJ5); test: PERK [PEK(EIK3CGQ1)] Takeda global kinase panel
[15] = target: Homeodomain-interacting protein kinase 4 (Homo sapiens, UniProt Q8NE63); test: HIPK4(HIP4LHY1) Takeda global kinase panel
Homeodomain-interacting protein kinase 4, sequence (Q8NE63 whole entry): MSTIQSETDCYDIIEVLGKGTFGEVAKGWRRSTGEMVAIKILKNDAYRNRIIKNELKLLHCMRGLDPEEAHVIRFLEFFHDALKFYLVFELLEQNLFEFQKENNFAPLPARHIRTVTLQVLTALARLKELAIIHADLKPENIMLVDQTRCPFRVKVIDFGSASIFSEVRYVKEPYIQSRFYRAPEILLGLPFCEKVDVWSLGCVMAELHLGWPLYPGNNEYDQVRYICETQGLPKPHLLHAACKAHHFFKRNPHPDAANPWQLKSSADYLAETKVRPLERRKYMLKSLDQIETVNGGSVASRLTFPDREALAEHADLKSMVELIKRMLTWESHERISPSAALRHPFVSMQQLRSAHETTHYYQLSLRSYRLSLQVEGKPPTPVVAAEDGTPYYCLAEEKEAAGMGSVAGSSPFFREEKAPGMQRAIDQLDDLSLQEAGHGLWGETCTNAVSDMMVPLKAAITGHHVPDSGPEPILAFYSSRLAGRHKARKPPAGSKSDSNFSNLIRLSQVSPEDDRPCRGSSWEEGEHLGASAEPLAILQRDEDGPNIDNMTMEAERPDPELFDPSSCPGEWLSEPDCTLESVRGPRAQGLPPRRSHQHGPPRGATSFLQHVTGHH

[16] = target: Dual specificity testis-specific protein kinase 2 (Homo sapiens, UniProt Q96S53); test: TESK2(TES2LGRL) Takeda global kinase panel
[17] = target: Myosin light chain kinase (Homo sapiens, UniProt Q32MK0); test: caMLCK(MYL3LGF1) Takeda global kinase panel
Ephrin type-A receptor 1 = Ephrin type-A receptor 1 (Homo sapiens, UniProt P21709); test: EphA1(EPA1LGY1) Takeda global kinase panel
Ephrin type-A receptor 1, sequence (P21709 whole entry): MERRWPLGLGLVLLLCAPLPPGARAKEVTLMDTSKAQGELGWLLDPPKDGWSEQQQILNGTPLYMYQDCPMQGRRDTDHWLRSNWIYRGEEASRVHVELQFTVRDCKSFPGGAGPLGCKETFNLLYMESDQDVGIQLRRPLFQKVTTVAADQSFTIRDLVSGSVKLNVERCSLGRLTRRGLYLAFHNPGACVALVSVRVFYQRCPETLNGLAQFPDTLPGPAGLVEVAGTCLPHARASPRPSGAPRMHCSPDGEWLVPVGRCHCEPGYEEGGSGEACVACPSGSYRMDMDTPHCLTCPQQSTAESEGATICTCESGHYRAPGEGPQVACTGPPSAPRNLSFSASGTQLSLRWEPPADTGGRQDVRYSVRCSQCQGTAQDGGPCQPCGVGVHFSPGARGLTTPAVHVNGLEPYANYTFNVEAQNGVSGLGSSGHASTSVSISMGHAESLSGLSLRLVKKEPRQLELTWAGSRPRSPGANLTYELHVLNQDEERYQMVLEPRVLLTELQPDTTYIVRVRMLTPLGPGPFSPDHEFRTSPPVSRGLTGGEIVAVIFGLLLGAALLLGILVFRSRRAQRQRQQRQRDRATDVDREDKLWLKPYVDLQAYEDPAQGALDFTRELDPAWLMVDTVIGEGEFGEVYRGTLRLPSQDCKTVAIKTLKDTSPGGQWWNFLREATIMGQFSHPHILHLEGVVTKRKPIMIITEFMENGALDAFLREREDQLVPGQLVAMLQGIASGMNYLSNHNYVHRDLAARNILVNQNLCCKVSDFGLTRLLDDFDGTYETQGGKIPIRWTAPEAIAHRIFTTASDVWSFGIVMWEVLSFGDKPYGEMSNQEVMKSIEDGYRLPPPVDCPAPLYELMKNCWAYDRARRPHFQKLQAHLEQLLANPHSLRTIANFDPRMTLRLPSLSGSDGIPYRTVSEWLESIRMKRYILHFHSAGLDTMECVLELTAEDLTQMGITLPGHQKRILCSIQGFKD

[18] = target: Cyclin-dependent kinase 16 (Homo sapiens, UniProt Q00536); test: PCTAIRE1(CD16SGS1) Takeda global kinase panel
Cyclin-dependent kinase 16, sequence (Q00536 whole entry): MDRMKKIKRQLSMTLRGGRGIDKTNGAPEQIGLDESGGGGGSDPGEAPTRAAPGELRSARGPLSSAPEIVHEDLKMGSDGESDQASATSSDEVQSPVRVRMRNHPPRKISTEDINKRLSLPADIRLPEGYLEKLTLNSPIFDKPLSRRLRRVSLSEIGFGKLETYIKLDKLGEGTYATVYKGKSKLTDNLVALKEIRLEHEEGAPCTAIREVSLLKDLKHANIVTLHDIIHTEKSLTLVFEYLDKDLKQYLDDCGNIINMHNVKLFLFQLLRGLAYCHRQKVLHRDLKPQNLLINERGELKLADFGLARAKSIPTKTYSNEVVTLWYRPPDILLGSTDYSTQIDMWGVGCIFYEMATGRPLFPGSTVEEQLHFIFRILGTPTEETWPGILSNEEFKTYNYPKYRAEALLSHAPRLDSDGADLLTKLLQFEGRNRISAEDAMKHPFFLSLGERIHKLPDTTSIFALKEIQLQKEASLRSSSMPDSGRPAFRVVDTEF

[19] = target: Non-receptor tyrosine-protein kinase TYK2 (Homo sapiens, UniProt P29597); test: Tyk2(TYK2LGF1) Takeda global kinase panel
[20] = target: Casein kinase I isoform alpha (Homo sapiens, UniProt P48729); test: CK1alpha(C1A1PHY1) Takeda global kinase panel
[21] = target: Mitotic checkpoint serine/threonine-protein kinase BUB1 (Homo sapiens, UniProt O43683); test: Bub1(BUB1LGRL) Takeda global kinase panel
[22] = target: Serine/threonine-protein kinase ULK1 (Homo sapiens, UniProt O75385); test: ULK1(ULK1LGF1) Takeda global kinase panel
Rattus norvegicus [23] = organism: Rattus norvegicus; test: Inhibition of Imidazoline I2, Central at 10 µM in the Eurofins-Panlabs radioligand binding assay (Eurofins_assay_241000); parameters: ligand concentration 2 nM; conditions: Compound concentration 10.0 uM
[24] = target: Cell division cycle 7-related protein kinase (Homo sapiens, UniProt O00311); test: CDC7(CDC7CGP1) Takeda global kinase panel
[25] = target: Dual specificity protein kinase CLK1 (Homo sapiens, UniProt P49759); test: CLK1(CLK1LGF1) Takeda global kinase panel
[26] = target: Protein kinase C theta type (Homo sapiens, UniProt Q04759); test: PKCtheta(PRKQLGM5) Takeda global kinase panel
Rattus norvegicus [27] = organism: Rattus norvegicus; conditions: Compound concentration 10.0 uM
[28] = target: 5-hydroxytryptamine receptor 3A (Homo sapiens) (UniProt P46098); test: Inhibition of Serotonin (5-Hydroxytryptamine) 5-HT3 at 10 µM in the Eurofins-Panlabs radioligand binding assay (Eurofins_assay_271910); parameters: ligand concentration 0.69 nM; conditions: Compound concentration 10.0 uM
[29] = target: Calcium/calmodulin-dependent protein kinase type IV (Homo sapiens, UniProt Q16566); test: CaMK4(CAM4LGY1) Takeda global kinase panel
[30] = target: Cyclin-dependent kinase 7 (Homo sapiens, UniProt P50613); test: CDK7(CDK7CGS1) Takeda global kinase panel
Cyclin-dependent kinase 7, sequence (P50613 whole entry): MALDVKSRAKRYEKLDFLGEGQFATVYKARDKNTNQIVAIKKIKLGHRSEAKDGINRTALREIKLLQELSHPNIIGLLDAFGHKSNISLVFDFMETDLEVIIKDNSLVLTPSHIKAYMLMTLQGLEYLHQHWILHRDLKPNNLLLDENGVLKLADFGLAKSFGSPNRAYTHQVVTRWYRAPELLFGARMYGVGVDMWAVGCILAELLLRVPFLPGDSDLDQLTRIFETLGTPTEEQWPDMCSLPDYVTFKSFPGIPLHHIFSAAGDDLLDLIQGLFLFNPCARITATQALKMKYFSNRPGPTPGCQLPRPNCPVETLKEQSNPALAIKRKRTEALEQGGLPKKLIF

SRSF protein kinase 3 = SRSF protein kinase 3 (Homo sapiens, UniProt Q9UPE1); test: MSSK1(SRP3MHRL) Takeda global kinase panel
[31] = target: Alpha-1D adrenergic receptor (Homo sapiens) (UniProt P25100); test: Inhibition of Adrenergic alpha1D at 10 µM in the Eurofins-Panlabs radioligand binding assay (Eurofins_assay_203400); conditions: Compound concentration 10.0 uM
[32] = target: GABA-A receptor; anion channel (Rattus norvegicus) (UniProt O09028+P15431+P18506+P18508+P19969+P20236+P23574+P23576+P28471+P28473+P30191+P62813+P63079+P63138+Q91ZM7+Q9ES14); conditions: Compound concentration 10.0 uM
[33] = target: Serine/threonine-protein kinase PAK 4 (Homo sapiens, UniProt O96013); test: PAK4(PAK4CGY1) Takeda global kinase panel
[34] = target: Histamine H3 receptor (Homo sapiens) (UniProt Q9Y5N1); conditions: Compound concentration 10.0 uM
[35] = target: Serine/threonine-protein kinase SIK3 (Homo sapiens, UniProt Q9Y2K2); test: QSK(SIK3LGP1) Takeda global kinase panel
Homo sapiens = organism: Homo sapiens; conditions: Compound concentration 10.0 uM
[36] = target: Tyrosine-protein kinase ABL1 (Homo sapiens, UniProt P00519); test: Abl(ABL1IHY1) Takeda global kinase panel
Tyrosine-protein kinase ABL1, sequence (P00519 whole entry): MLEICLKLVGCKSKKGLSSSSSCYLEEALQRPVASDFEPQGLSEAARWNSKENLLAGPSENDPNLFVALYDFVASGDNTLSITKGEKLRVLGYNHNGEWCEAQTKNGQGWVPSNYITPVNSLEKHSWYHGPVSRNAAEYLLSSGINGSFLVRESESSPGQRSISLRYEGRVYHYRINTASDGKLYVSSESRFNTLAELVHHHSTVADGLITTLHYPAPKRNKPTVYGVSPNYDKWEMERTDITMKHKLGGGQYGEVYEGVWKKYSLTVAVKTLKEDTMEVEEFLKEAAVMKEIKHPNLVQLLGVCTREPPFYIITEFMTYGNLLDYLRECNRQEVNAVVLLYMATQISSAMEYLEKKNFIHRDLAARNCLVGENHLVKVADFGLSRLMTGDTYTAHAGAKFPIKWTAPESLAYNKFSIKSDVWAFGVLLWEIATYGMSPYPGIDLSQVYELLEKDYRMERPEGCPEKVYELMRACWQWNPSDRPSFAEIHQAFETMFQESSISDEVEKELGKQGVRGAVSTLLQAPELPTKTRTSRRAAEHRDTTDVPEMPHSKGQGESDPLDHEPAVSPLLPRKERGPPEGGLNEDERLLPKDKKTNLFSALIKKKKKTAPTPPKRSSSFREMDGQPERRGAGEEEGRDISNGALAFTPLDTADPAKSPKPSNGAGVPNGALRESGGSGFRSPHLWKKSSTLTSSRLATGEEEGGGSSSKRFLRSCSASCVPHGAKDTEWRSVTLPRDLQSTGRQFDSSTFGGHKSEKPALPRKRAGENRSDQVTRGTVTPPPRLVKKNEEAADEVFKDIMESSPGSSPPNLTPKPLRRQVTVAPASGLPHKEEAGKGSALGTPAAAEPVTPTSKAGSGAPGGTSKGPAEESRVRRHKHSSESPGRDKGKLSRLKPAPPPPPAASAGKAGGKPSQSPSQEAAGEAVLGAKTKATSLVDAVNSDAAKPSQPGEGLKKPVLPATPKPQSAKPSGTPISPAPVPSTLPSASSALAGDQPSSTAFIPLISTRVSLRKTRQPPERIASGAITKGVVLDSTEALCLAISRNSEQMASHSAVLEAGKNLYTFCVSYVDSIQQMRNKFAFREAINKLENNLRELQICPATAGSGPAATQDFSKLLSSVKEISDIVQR

[37] = target: Homeodomain-interacting protein kinase 1 (Homo sapiens, UniProt Q86Z02); test: HIPK1(HIP1LGF1) Takeda global kinase panel
[38] = target: Serine/threonine-protein kinase 32A (Homo sapiens, UniProt Q8WU08); test: YANK1(S32APHY1) Takeda global kinase panel

## CN1C(=O)[C@@H](N2CCc3c(nn(Cc4ccccc4)c3Br)C2=O)COc2ccccc21 [TP-030-2]
hERG (KCNH2)
  inhibition at 60 min, 10 µM: 7% (not active)
[1]
  inhibition: 5%
[2]
  IC50: 1 µM
[3]
  IC50: 1 µM
[4]
  inhibition: 40%
[5]
  IC50: 1 µM
[6]
  IC50: 1 µM
[7]
  inhibition: -3.35%
[8]
  inhibition: 9.18%
[9]
  IC50: 1 µM
[10]
  IC50: 1 µM
[11]
  inhibition: 5%
[12]
  inhibition: 22.6%
[13]
  inhibition: -7%
[14]
  IC50: 1 µM
[15]
  IC50: 1 µM
[16]
  IC50: 1 µM
[17]
  IC50: 1 µM
Ephrin type-A receptor 1
  IC50: 1 µM
[18]
  IC50: 1 µM
[19]
  IC50: 1 µM
[20]
  IC50: 1 µM
[21]
  IC50: 1 µM
[22]
  IC50: 1 µM
Rattus norvegicus [23]
  inhibition: -6%
[24]
  IC50: 1 µM
[25]
  IC50: 1 µM
[26]
  IC50: 1 µM
Rattus norvegicus [27]
  inhibition: 82.2%
[28]
  inhibition: 4%
[29]
  IC50: 1 µM
[30]
  IC50: 1 µM
SRSF protein kinase 3
  IC50: 1 µM
[31]
  inhibition: -2%
[32]
  inhibition: 24%
[33]
  IC50: 1 µM
[34]
  inhibition: 5%
[35]
  IC50: 1 µM
Homo sapiens
  inhibition: 16%
[36]
  IC50: 1 µM
[37]
  IC50: 1 µM
[38]
  IC50: 1 µM
